In patent US5482967A, “Condensed heterocyclic compounds, their production and use” (Takeda Chemical Industries, Ltd., priority 1992, dated 1996) one finds IC50 data, which are given here for 27 compounds.

Structures can show the parent of a compound that is named as a salt.

This assay concerns the target substance P receptor (Homo sapiens, UniProt P25103). As to the kind of experiment: Radioligand receptor binding inhibitory assay using receptor from human lymphoblast cells (IM-9), 125I-BHSP. The note with it: IM-9 receptor, 25° C., 30 minutes. The method, then: The method of A. Margaret et al. [Molecular Pharmacology 42, 458 (1992)] was modified and used. The receptor was prepared from human lymphoblast cells (IM-9). IM-9 cells were grown in 175 cm^2 tissue culture flasks (100 ml×10) at a density approximately 2×10^5 /ml of RPMI 1640 with L-glutamine, 10% (V/V) heat inactivated fetal calf serum, penicillin (100 u/ml), and streptomycin (100 μg/ml) at 37° C. in 5% CO2 /95% air for 3 days. IM-9 cells were obtained by centrifugation at 500×g for 5 minutes at 5° C. The pellet obtained was washed once with phosphate buffer (Flow Laboratories, CAT No. 28-103-05), homogenized using Polytron homogenizer (Kinematika, Germany) in 30 ml of 50 mM Tris-HCl buffer containing 120 mM NaCl, 5 mM KCl, 2 μg/ml phenylmethyl sulfonyl fluoride, and 1 mM ethylenediamine tetra-acetic acid and then centrifuged at 40,000×g for 20 minutes. The residue was washed twice with 30 ml of buffer described above, and preserved frozen (-80° C.).
The above specimen was suspended in a reaction buffer (50 mM Tris-HCl buffer (pH 7.4), 0.02% bovine serum albumin, 1 mM phenylmethylsulfonyl fluoride, 2 μg/ml chymostatin, 40 μg/ml bacitracin, 3 mM manganese chloride) at a protein concentration of 1.5 mg/ml and a 100 μl portion of the suspension was used in the reaction. After addition of the sample and 125I-BHSP (0.46 KBq), the reaction was conducted in 0.2 ml of reaction buffer at 25° C. for 30 minutes. The amount of nonspecific binding was determined by adding substance P at a final concentration of 2×10^-6 M. After the reaction, using a cell harvester (290PHD, Cambridge Technology, Inc., England), rapid filtration was carried out through a glass filter (GF/B, Whatman, U.S.A.) to stop the reaction. After washing three times with 250 μl of 50 mM Tris-HCl buffer (pH 7.4) containing 0.02% bovine serum albumin, the radioactivity remaining on the filter was measured with a gamma counter. Before use, the filter was immersed in 0.1% polyethyleneimine for 24 hours and air-dried.

substance P receptor, sequence (P25103 whole entry): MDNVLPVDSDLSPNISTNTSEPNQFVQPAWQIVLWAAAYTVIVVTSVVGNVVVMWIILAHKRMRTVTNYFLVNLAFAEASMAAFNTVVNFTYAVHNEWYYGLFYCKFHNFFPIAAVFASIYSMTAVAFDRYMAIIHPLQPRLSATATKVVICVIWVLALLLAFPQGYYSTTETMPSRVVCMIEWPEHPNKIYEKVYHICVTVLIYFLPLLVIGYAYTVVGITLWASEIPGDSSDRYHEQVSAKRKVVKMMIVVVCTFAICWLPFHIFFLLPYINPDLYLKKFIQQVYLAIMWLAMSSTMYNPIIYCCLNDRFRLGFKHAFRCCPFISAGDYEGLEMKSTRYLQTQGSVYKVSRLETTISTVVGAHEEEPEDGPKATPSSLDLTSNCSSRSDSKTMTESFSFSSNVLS

In the case of `CN(Cc1cc(C(F)(F)F)cc(C(F)(F)F)c1)C(=O)c1[nH]c(=O)c2ccccc2c1-c1ccccc1` [Example 172, N-[3,5-Bis(trifluoromethyl)benzyl]-1,2-dihydro-N-methyl-1-oxo-4-phenyl-3-isoquinolinecarboxamide], the 50% inhibitory concentration (IC50) stood at 0.5 nM.
In the case of `Cn1c(C(=O)NCc2cc(C(F)(F)F)cc(C(F)(F)F)c2)c(-c2ccccc2)c2cc(Cl)ccc2c1=O` [Example 173, N-[3,5-Bis(trifluoromethyl)benzyl]-6-chloro-1,2-dihydro-2-methyl-1-oxo-4-phenyl-3-isoquinolinecarboxamide] it was 24 nM; in that of `CN(Cc1cc(C(F)(F)F)cc(C(F)(F)F)c1)C(=O)c1c(-c2ccccc2)c2cc(Cl)ccc2c(=O)n1C` [Example 174, N-[3,5-Bis(trifluoromethyl)benzyl]-6-chloro-1,2-dihydro-N,2-dimethyl-1-oxo-4-phenyl-3-isoquinolinecarboxamide], 3.4 nM.
In turn, `Cc1cc(F)ccc1-c1c(C(=O)NCc2cc(C(F)(F)F)cc(C(F)(F)F)c2)n(C)c(=O)c2ccccc12` [Example 175, N-[3,5-Bis(trifluoromethyl)benzyl]-4-(4-fluoro-2-methylphenyl)-1,2-dihydro-2-methyl-1-oxo-3-isoquinolinecarboxamide] yielded an IC50 of 6.2 nM.
In the case of `Cc1cc(F)ccc1-c1c(C(=O)N(C)Cc2cc(C(F)(F)F)cc(C(F)(F)F)c2)n(C)c(=O)c2ccccc12` [Example 176, N-[3,5-Bis(trifluoromethyl)benzyl]-4-(4-fluoro-2-methylphenyl)-1,2-dihydro-N,2-dimethyl-1-oxo-3-isoquinolinecarboxamide], the IC50 amounted to 0.7 nM.
With `CN(Cc1cc(C(F)(F)F)cc(C(F)(F)F)c1)C(=O)c1[nH]c(=O)c2ccc(Cl)cc2c1-c1ccccc1` [Example 177, N-[3,5-Bis(trifluoromethyl)benzyl]-6-chloro-1,2-dihydro-N-methyl-1-oxo-4-phenyl-3-isoquinolinecarboxamide], the 50% inhibitory concentration (IC50) is 13 nM.
`CN(Cc1cc(C(F)(F)F)cc(C(F)(F)F)c1)C(=O)c1[nH]c(=O)c2ccccc2c1-c1ccc(F)cc1` [Example 178, N-[3,5-Bis(trifluoromethyl)benzyl]-4-(4-fluorophenyl)-1,2-dihydro-N-methyl-1-oxo-3-isoquinolinecarboxamide]: the concentration for half-maximal inhibition (IC50) came to 0.14 nM.
On to `CCOC(=O)CCn1c(C(=O)NCc2cc(C(F)(F)F)cc(C(F)(F)F)c2)c(-c2ccccc2)c2ccccc2c1=O` [Example 179, N-[3,5-Bis(trifluoromethyl)benzyl]-2-(2-ethoxycarbonylethyl)-1,2-dihydro-1-oxo-4-phenyl-3-isoquinolinecarboxamide], for which the concentration for half-maximal inhibition (IC50) turned out to be 80 nM.
The compound `CCOC(=O)CCn1c(C(=O)N(C)Cc2cc(C(F)(F)F)cc(C(F)(F)F)c2)c(-c2ccccc2)c2ccccc2c1=O` [Example 180, N-[3,5-Bis(trifluoromethyl)benzyl]-2-(2-ethoxycarbonylethyl)-1,2-dihydro-N-methyl-1-oxo-4-phenyl-3-isoquinolinecarboxamide] returned an IC50 of 9.1 nM.
In the case of `Cn1c(C(=O)NCc2cc(C(F)(F)F)cc(C(F)(F)F)c2)c(-c2ccccc2C(F)(F)F)c2ccccc2c1=O` [Example 181, N-[3,5-Bis(trifluoromethyl)benzyl]-1,2-dihydro-2-methyl-1-oxo-4-(2-trifluoromethylphenyl)-3-isoquinolinecarboxamide] it was 31 nM.
With `CN(Cc1cc(C(F)(F)F)cc(C(F)(F)F)c1)C(=O)c1c(-c2ccccc2C(F)(F)F)c2ccccc2c(=O)n1C` [Example 182, N-[3,5-Bis(trifluoromethyl)benzyl]-1,2-dihydro-N,2-dimethyl-1-oxo-4-(2-trifluoromethylphenyl)-3-isoquinolinecarboxamide], the IC50 was 2 nM.
As for `CN(C)CCn1c(C(=O)N(C)Cc2cc(C(F)(F)F)cc(C(F)(F)F)c2)c(-c2ccccc2)c2ccccc2c1=O` [Example 184, N-[3,5-Bis(trifluoromethyl)benzyl]-2-[2-(N,N-dimethylamino)ethyl]-1,2-dihydro-N-methyl-1-oxo-4-phenyl-3-isoquinolinecarboxamide hydrochloride], the figure is 17 nM.
In turn, `Cn1c(C(=O)NCc2cc(C(F)(F)F)cc(C(F)(F)F)c2)c(-c2ccccc2)c2c(c1=O)CCCC2` [Example 185, N-[3,5-Bis(trifluoromethyl)benzyl]-1,2,5,6,7,8-hexahydro-2-methyl-1-oxo-4-phenyl-3-isoquinolinecarboxamide] yielded an IC50 of 32 nM.
As for `CN(Cc1cc(C(F)(F)F)cc(C(F)(F)F)c1)C(=O)c1c(-c2ccccc2)c2c(c(=O)n1C)CCCC2` [Example 186, N-[3,5-Bis(trifluoromethyl)benzyl]-1,2,5,6,7,8-hexahydro-N-2-dimethyl-1-oxo-4-phenyl-3-isoquinolinecarboxamide], the figure is 1.8 nM; as for `CCN(Cc1cc(C(F)(F)F)cc(C(F)(F)F)c1)C(=O)c1c(-c2ccccc2)c2ccccc2c(=O)n1C` [Example 187, N-[3,5-Bis(trifluoromethyl)benzyl]-1,2-dihydro-N-ethyl-2-methyl-1-oxo-4-phenyl-3-isoquinolinecarboxamide], 1.4 nM; as for `CN(Cc1cc(C(F)(F)F)cc(C(F)(F)F)c1)C(=O)c1c(-c2ccc(F)cc2)c2c(F)cccc2c(=O)n1C` [Example 188, N-[3,5-Bis(trifluoromethyl)benzyl]-5-fluoro-4-(4-fluorophenyl)-N,2-dimethyl-1-oxo-3-isoquinolinecarboxamide], 1.2 nM.
As for `CCn1c(C(=O)N(C)Cc2cc(C(F)(F)F)cc(C(F)(F)F)c2)c(-c2ccccc2)c2ccccc2c1=O` [Example 189, N-[3,5-Bis(trifluoromethyl)benzyl]-1,2-dihydro-2-ethyl-N-methyl-1-oxo-4-phenyl-3-isoquinolinecarboxamide], the figure is 1.7 nM.
In the case of `COc1ccccc1CNCc1c(-c2ccccc2)c2cc(C)c(C)cc2c(=O)n1C` [Example 190, 1,2-Dihydro-N-(2-methoxybenzyl)-2,6,7-trimethyl-1-oxo-4-phenyl-3-isoquinolinemethylamine] it was 13 nM; in that of `Cc1cc(C)cc(CNCc2c(-c3ccccc3)c3cc(C)c(C)cc3c(=O)n2C)c1` [Example 191, N-(3,5-Dimethylbenzyl)-1,2-dihydro-2,6,7-trimethyl-1-oxo-4-phenyl-3-isoquinolinemethylamine], 28 nM.
In turn, `COc1cc(CNCc2c(-c3ccccc3)c3ccccc3c(=O)n2C)cc(OC)c1OC` [Example 205, 1,2-Dihydro-2-methyl-1-oxo-4-phenyl-N-(3,4,5-trimethoxybenzyl)-3-isoquinolinemethylamine] came in with an IC50 of 22 nM.
In the case of `COc1ccccc1CCOCc1c(-c2ccccc2)c2cc(C)c(C)cc2c(=O)n1C` [Example 207, 1,2-Dihydro-2,6,7-trimethyl-1-oxo-4-phenyl-3-isoquinolinemethyl 2-(2-methoxyphenyl)ethyl ether] it was 110 nM; in that of `Cc1cc(C)cc(COCc2c(-c3ccccc3)c3cc(C)c(C)cc3c(=O)n2C)c1` [Example 208, 1,2-Dihydro-2,6,7-trimethyl-1-oxo-4-phenyl-3-isoquinolinemethyl 3,5-dimethylbenzyl ether], 140 nM; in that of `Cn1c(COCc2cc(C(F)(F)F)cc(C(F)(F)F)c2)c(-c2ccccc2)c2ccccc2c1=O` [Example 211, 3,5-Bis(trifluoromethyl)benzyl 1,2-dihydro-2-methyl-1-oxo-4-phenyl-3-isoquinolinemethyl ether], 23 nM.
Turning to `Cc1ccccc1-c1c(COCc2cc(C(F)(F)F)cc(C(F)(F)F)c2)n(C)c(=O)c2ccccc12` [Example 212, 3,5-Bis(trifluoromethyl)benzyl 1,2-dihydro-2-methyl-4-(2-methylphenyl)-1-oxo-3-isoquinoline methyl ether], the IC50 stood at 30 nM.
As for `CCc1ccccc1-c1c(COCc2cc(C(F)(F)F)cc(C(F)(F)F)c2)n(C)c(=O)c2ccccc12` [Example 216, 3,5-Bis(trifluoromethyl)benzyl 4-(2-ethylphenyl)-1,2-dihydro-2-methyl-1-oxo-3-isoquinolinemethyl ether], the figure is 62 nM; as for `Cc1ccccc1-c1c(C[S+]([O-])Cc2cc(C(F)(F)F)cc(C(F)(F)F)c2)n(C)c(=O)c2ccccc12` (stereo not drawn) [Example 218, 3,5-Bis(trifluoromethyl)benzyl 1,2-dihydro-2-methyl-4-(2-methylphenyl)-1-oxo-3-isoquinolinemethyl sulfoxide], 23 nM; as for `Cc1cc2c(-c3ccccc3)c(CC(=O)N(C)Cc3ccccc3Cl)n(C)c(=O)c2cc1C` [Example 221, N-(2-Chlorobenzyl)-1,2-dihydro-N,2,6,7-tetramethyl-1-oxo-4-phenyl-3-isoquinolineacetamide], 130 nM.

Usually IC50 stands for the concentration at which inhibition is half-maximal. Read a low IC50 as greater potency.
